# Laboratory results: US11478466B2, “Small molecule promoting osteoblast differentiation” (Cornell University, priority 2019, dated 2022)
# What was measured:
# [1] = system: alkaline phosphatase (ALP); assay: Flow cytometric analysis of ALP-positive C2C12 cell population; type: cell-based, mouse; settings: C2C12, day 2; baseline approximately 4% in DMSO-treated cells
# Experimental: C2C12 cells were treated for 2 days with 10 μM DIPQUO or structural analogs, 1 ng/ml rhBMP4, or with inhibitors as noted in figure legends, and then fixed briefly in 70% acetone/10% formaldehyde/20% citrate. Staining was achieved using the leukocyte alkaline phosphatase kit (Sigma 86R-1KT) according to the manufacturer's instructions. Expression of ALP was confirmed and quantified by flow cytometric analysis, using an Accuri C6 flow cytometer. Briefly, control- or DIPQUO-treated C2C12 cells were detached and harvested on day 2 using PBS-based enzyme-free cell detachment solution (ThermoFisher). 2×10^5 cells were incubated on ice for 30 minutes with 10 μl APC-conjugated ALPL antibody (R&D Systems), and washed in ice-cold PBS before analysis. Live cells were gated and analyzed in CFlow Plus software and then data was converted to FlowJo to achieve publication-level resolution. […] After an additional 3 days, cells were either fixed and stained for ALP expression or analyzed for ALP activity using the AttoPhos Substrate kit. Hemagglutinin and FLAG epitope-tagged MKK3 (pMT2-HA-MKK3) and MKK6 (pcDNA3-FLAG-MKK6) constructs were obtained from Addgene and transfected into C2C12 cells using Lipofectamine LTX with Plus Reagent (ThermoFisher) according to manufacturer's instructions and cell extracts analyzed for protein expression and activity as described below.
# [2] = system: JNK p54; assay: Western blotting of JNK in C2C12 cells; type: cell-based, mouse
# Experimental: (§1) Whole cell extracts were collected from C2C12 or BRITER cells in complete lysis buffer (20 mM Tris, 150 mM NaCl, 50 mM NaF, 1% NP40 substitute, HALT protease inhibitor cocktail (ThermoScientific). Proteins were resolved by electrophoresis on pre-cast 10% NuPage Bis-Tris gels (Invitrogen) and transferred to PVDF membranes (Bio-Rad). Membranes were blocked in 5% BSA-TBS-0.5% Tween-20 for 15 minutes, then incubated at 4° overnight with primary antibodies. Antibodies used were: rabbit anti-phospho-p38 MAPK (cat. no. 9211), anti-p38 MAPK XP (8690), anti-phospho-SMAD1/5 (9516), anti-SMAD1 XP (6944), anti-phospho-SMAD2/3 (8828), anti-SMAD2/3 XP (8685), anti-phospho-JNK (4668), anti-SAPK/JNK (9252), anti-phospho-Akt XP (4060), pan anti-Akt (4691), anti-phospho ERK p42/p44 (4377), anti-ERK p42/p44 (9102), anti-phospho-MKK3/6 (12280), anti-MKK3 (8535), anti-phospho-TAK1 (4531), anti-TAK1 (5206), anti-HA (3274), and anti-FLAG (14793); all from Cell Signaling); and mouse anti-p38α (cat. no. 33-1300), anti-p38β (33-8700; both ThermoFisher) and anti-β-actin (Sigma A1978). Proteins were visualized with HRP-conjugated secondary antibodies (Bio-Rad) with WestPico (ThermoFisher) or Immobilon (Millipore) chemiluminescence reagents. Images were obtained and analyzed for relative densitometric relationships on a LI-COR C-DiGit scanner using Image Studio software.
# [3] = system: zebrafish larvae; assay: Larval zebrafish notochord ossification model (alizarin red); type: in vivo, Danio rerio; settings: 15 μM, 24-h pulse 7-8 dpf, stained at 9 dpf, vs DMSO or inert analogs
# Description: DIPQUO Promotes and Accelerates Bone Mineralization In Vivo To address whether the observed effects of DIPQUO on osteoblast differentiation and maturation could extend to an in vivo bone model, we utilized the zebrafish, Danio rerio. First, zebrafish were used as a model system to examine developmental ossification via direct vertebral specification through conversion of the notochord sheath (Inohaya et al., 2007; Laue et al., 2008). During zebrafish larval stages, the extent and pattern of ossification observable at discrete developmental time points are susceptible to perturbation by cytokines or genetic modulation. The contribution of extrinsic factors to notochord ossification and patterning can be measured by alizarin red staining in a manner analogous to its application in gauging osteoblast maturation in cultured cells.
# Animals studies were performed according to protocols approved by the WCMC IACUC. Wildtype (AB/TU hybrid) zebrafish were maintained at 28.5° C. Larval fish were treated from 7 dpf to 8 dpf in tank water with DMSO or with a 24-hour pulse of 15 μM DIPQUO or inert analog BT344 or BT345, and were fixed at 9 dpf in 4% paraformaldehyde overnight rocking at 4° C. Fixed larvae were washed in PBS-0.1% Tween-20 (PBST), followed by 50% ethanol/50% PBST. […] Images were acquired on a Zeiss LSM 800 confocal microscope and Sp7^+/col10a1^+ cells quantified using ImageJ.
# [4] = system: alkaline phosphatase (ALP); assay: ALP expression staining in C2C12 cells; type: cell-based, mouse; settings: C2C12, 2 days, 10 μM
# Experimental: C2C12 cells were treated for 2 days with 10 μM DIPQUO or structural analogs, 1 ng/ml rhBMP4, or with inhibitors as noted in figure legends, and then fixed briefly in 70% acetone/10% formaldehyde/20% citrate. Staining was achieved using the leukocyte alkaline phosphatase kit (Sigma 86R-1KT) according to the manufacturer's instructions. Expression of ALP was confirmed and quantified by flow cytometric analysis, using an Accuri C6 flow cytometer. Briefly, control- or DIPQUO-treated C2C12 cells were detached and harvested on day 2 using PBS-based enzyme-free cell detachment solution (ThermoFisher). 2×10^5 cells were incubated on ice for 30 minutes with 10 μl APC-conjugated ALPL antibody (R&D Systems), and washed in ice-cold PBS before analysis. Live cells were gated and analyzed in CFlow Plus software and then data was converted to FlowJo to achieve publication-level resolution. For siRNA experiments, gene-specific oligonucleotides were obtained for mouse p38-alpha (Cell Signaling) and p38-beta (Santa Cruz). Signal Silence scramble siRNA control oligonucleotide was purchased from Cell Signaling. C2C12 cells at 70% confluency were transfected in 12-well plates using Lipofectamine RNAiMax reagent (Invitrogen) according to manufacturer's instructions. Transfected cells were treated 24 hours later with DMSO or 10 μM DIPQUO, and siRNA transfection was repeated after 48 hours without changing culture media. After an additional 3 days, cells were either fixed and stained for ALP expression or analyzed for ALP activity using the AttoPhos Substrate kit. Hemagglutinin and FLAG epitope-tagged MKK3 (pMT2-HA-MKK3) and MKK6 (pcDNA3-FLAG-MKK6) constructs were obtained from Addgene and transfected into C2C12 cells using Lipofectamine LTX with Plus Reagent (ThermoFisher) according to manufacturer's instructions and cell extracts analyzed for protein expression and activity as described below.
# [5] = system: p38 MAPK; assay: Western blotting of p38 MAPK phosphorylation in C2C12 cells; type: cell-based, mouse
# Experimental: as §1
smiles,measurement,setting,value
"Cc1cc(C)c2[nH]c(=O)c(-c3[nH]cnc3-c3ccccc3)cc2c1 [RU-0226606, 6,8-dimethyl-3-(4-phenyl-1H-imidazol-5-yl)quinolin-2(1H)-one]",ALP-expressing fraction of the cell culture (flow cytometry),[1],> 30%
same,JNK p54 signaling,[2],suppressed the p54 isoform
same,mineralization of vertebral primordia (alizarin red),[3],accelerate and accentuate mineralization of incipient vertebral primordia
same,ALP expression by staining,[4],rapidly stimulate ALP expression within 2 days
same,p38 MAPK signaling (phosphorylation),"[5]; C2C12, western blotting",selectively activated p38 MAPK signaling
same,concentration at which effects on p38 MAPK and JNK pathway activation overlap,"[5]; dose-response, western blotting, 6-8 hours of treatment",5 to 10 µM
